Results: ChEMBL document CHEMBL4680246, “Design, synthesis and biological evaluation of novel O-carbamoyl ferulamide derivatives as multi-target-directed ligands for the treatment of Alzheimer's disease” (Eur J Med Chem, 2020)
Converted amounts (≈) assume the structure as drawn. The source made the active and inactive calls. The calls are words filed in the database; no cut-off is given here.

Key:
[1] = Effect on tau protein level in mouse HT22 cells transfected with pRK5-GFP-Tau plasmid assessed as fluorescence intensity at 20 uM by fluorescence microscopy (Rvb <= 40.9); assay type: functional, HT-22
[2] = Effect on tau protein level in mouse HT22 cells transfected with pRK5-GFP-Tau plasmid assessed as fluorescence intensity at 5 uM by fluorescence microscopy (Rvb <= 40.9); assay type: functional, HT-22
HT-22 [3] = test: Cytotoxicity against mouse HT22 cells assessed as effect on cell viability at 10 uM by MTT assay; assay type: cell-based; conditions: ht-22, 10 µM
SH-SY5Y = test: Cytotoxicity against human SH-SY5Y cells up to 50 uM by MTT assay; assay type: cell-based
[4] = biological target: Amyloid-beta precursor protein (Homo sapiens) (UniProt P05067); test: Disaggregation of self-induced amyloid beta (1 to 42) (unknown origin) preformed fibrils at 25 uM measured after 24 hrs by thioflavin-T fluorescence assay relative to control
[5] = biological target: T1, Amine oxidase [flavin-containing] B (Homo sapiens, UniProt P27338); test: Inhibition of recombinant human MAO-B
T1 sequence (P27338 whole entry): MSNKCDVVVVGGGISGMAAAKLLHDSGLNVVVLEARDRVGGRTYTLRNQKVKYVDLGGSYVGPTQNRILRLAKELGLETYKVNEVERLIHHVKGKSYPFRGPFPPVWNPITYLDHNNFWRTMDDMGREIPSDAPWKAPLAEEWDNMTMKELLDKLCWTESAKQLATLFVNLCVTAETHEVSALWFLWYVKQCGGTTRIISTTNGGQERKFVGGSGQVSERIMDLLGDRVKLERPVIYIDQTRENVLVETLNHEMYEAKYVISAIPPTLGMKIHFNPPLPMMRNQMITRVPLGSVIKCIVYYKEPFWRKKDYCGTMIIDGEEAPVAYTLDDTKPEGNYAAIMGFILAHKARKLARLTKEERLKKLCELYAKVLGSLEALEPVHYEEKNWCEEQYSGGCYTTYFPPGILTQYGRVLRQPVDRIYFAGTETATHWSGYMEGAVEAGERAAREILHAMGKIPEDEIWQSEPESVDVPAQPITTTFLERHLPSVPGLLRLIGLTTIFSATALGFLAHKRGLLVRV

Cholinesterase [6] = biological target: Cholinesterase (Homo sapiens, UniProt P06276); test: Pseudo-irreversible inhibition of human serum BuChE assessed as residual activity at 0.1 times IC50 using acetylcholine iodide as substrate measured 240 mins post dilution by Ellman's method relative to control
Cholinesterase [7] = biological target: Cholinesterase (Equus caballus, UniProt P81908); test: Inhibition of equine serum BuChE using BTC as substrate after 15 mins by Ellman's method
[8] = Acute toxicity in Kunming mouse assessed as damage in kidney at 50 to 1000 mg/kg measured after 7 days; assay type: organism-based; conditions: in vivo, 168 h, dose 50-1000 mg/kg, time 7 day
[9] = Acute toxicity in Kunming mouse assessed as damage in spleen at 50 to 1000 mg/kg measured after 7 days; assay type: organism-based; conditions: in vivo, 168 h, dose 50-1000 mg/kg, time 7 day
[10] = Acute toxicity in Kunming mouse assessed as damage in heart at 50 to 1000 mg/kg measured after 7 days; assay type: organism-based; conditions: in vivo, 168 h, dose 50-1000 mg/kg, time 7 day
HT-22 [11] = test: Down regulation of tau protein expression in mouse HT22 cells transfected with pRK5-GFP-Tau P301L plasmid at 2.5 to 20 uM by Western blot analysis; assay type: functional, cell-based; conditions: dose 2.5-20 µM
HT-22 [12] = test: Effect on APP protein level in mouse HT22 cells transfected with pEGFP-N1-APP plasmid assessed as reduction in fluorescence intensity by fluorescence microscopy; assay type: functional, cell-based
L02 = test: Cytotoxicity against human LO2 cells assessed as reduction in cell viability at 25 uM by MTT assay; assay type: cell-based; conditions: l02, 25 µM
[13] = Toxicity in Zebrafish; set-up: species or system Danio rerio; conditions: in vivo
[14] = Toxicity in Zebrafish assessed as mortality at 25 ug/ml relative to control; set-up: species or system Danio rerio; conditions: in vivo, at 25 µg/mL
[15] = Toxicity in Zebrafish assessed as induction of yolk sac absorption delay at 1.04 ug/ml relative to control; set-up: species or system Danio rerio; conditions: in vivo, at 1.04 µg/mL
[16] = Toxicity in Zebrafish assessed as induction of yolk sac absorption delay at 6.25 ug/ml relative to control; set-up: species or system Danio rerio; conditions: in vivo, at 6.25 µg/mL
[17] = Toxicity in AlCl3-induced Zebrafish model of Alzheimer's disease assessed as mortality at 1 ug/ml relative to control; set-up: species or system Danio rerio; conditions: in vivo, at 1 µg/mL
[18] = Toxicity in AlCl3-induced Zebrafish model of Alzheimer's disease assessed as mortality at 10 ug/ml relative to control; set-up: species or system Danio rerio; conditions: in vivo, at 10 µg/mL
[19] = Toxicity in AlCl3-induced Zebrafish model of Alzheimer's disease assessed as mortality at 200 ug/ml relative to control; set-up: species or system Danio rerio; conditions: in vivo, at 200 µg/mL
Danio rerio [20] = species: Danio rerio; test: Antialzheimer activity in AlCl3-induced Zebrafish model of Alzheimer's disease assessed as motility distance at […] (reference value: 5346 mm); assay type: functional; conditions: dose 0.11 µg/ml
Danio rerio [21] = species: Danio rerio; test: Antialzheimer activity in AlCl3-induced Zebrafish model of Alzheimer's disease assessed as motility distance at 0.33 ug/ml (reference value: 5346 mm); assay type: functional; conditions: dose 0.33 µg/ml
Danio rerio [22] = species: Danio rerio; test: Antialzheimer activity in AlCl3-induced Zebrafish model of Alzheimer's disease assessed as increase in motility distance at 0.33 ug/ml relative to control; assay type: functional; conditions: dose 0.33 µg/ml
Danio rerio [23] = species: Danio rerio; test: Antialzheimer activity in AlCl3-induced Zebrafish model of Alzheimer's disease assessed as change in motility speed at 0.33 ug/ml (reference value: 1.08 mm/s); assay type: functional; conditions: dose 0.33 µg/ml
Danio rerio [24] = species: Danio rerio; test: Antialzheimer activity in AlCl3-induced Zebrafish model of Alzheimer's disease assessed as increase in motility speed at […] relative to control; assay type: functional; conditions: dose 0.11 µg/ml
Danio rerio [25] = species: Danio rerio; test: Protection against amyloid beta (1 to 42)-induced zebrafish model of vascular injury assessed as vascular injury rate at […] (reference value: 73.3%); assay type: functional; conditions: dose 0.11 µg/ml
Danio rerio [26] = species: Danio rerio; test: Protection against amyloid beta (1 to 42)-induced zebrafish model of vascular injury assessed as reduction in vascular injury at […] relative to control; assay type: functional; conditions: dose 0.11 µg/ml
[27] = Acute toxicity in Kunming mouse assessed as lethargy at 250 to 1000 mg/kg; assay type: organism-based; conditions: in vivo, dose 250-1000 mg/kg
[28] = Acute toxicity in Kunming mouse assessed as piloerection at 250 to 1000 mg/kg measured after 4 hrs; assay type: organism-based; conditions: in vivo, dose 250-1000 mg/kg
[29] = Effect on spontaneous alteration behavior in mouse assessed as change in total arm entry at 5 to 20 mg/kg by Y-maze test; assay type: ADME, organism-based; conditions: in vivo, dose 5-20 mg/kg
Mus musculus [30] = test: Improvement in cognitive impairment in scopolamine-induced mouse model of amnesia assessed as change in spontaneous alteration at 20 mg/kg by Y-maze test (reference value: 40.8%); assay type: functional
Mus musculus [31] = test: Improvement in brain cholinergic activity in scopolamine-induced mouse model of amnesia assessed as change in ChAT vitality at 20 mg/kg (reference value: 28.8 U/g); assay type: functional
[32] = Drug metabolism in human liver microsomes by HPLC analysis; assay type: ADME, Microsome

Chain of Cholinesterase (Equus caballus, UniProt P81908) (P81908 whole entry): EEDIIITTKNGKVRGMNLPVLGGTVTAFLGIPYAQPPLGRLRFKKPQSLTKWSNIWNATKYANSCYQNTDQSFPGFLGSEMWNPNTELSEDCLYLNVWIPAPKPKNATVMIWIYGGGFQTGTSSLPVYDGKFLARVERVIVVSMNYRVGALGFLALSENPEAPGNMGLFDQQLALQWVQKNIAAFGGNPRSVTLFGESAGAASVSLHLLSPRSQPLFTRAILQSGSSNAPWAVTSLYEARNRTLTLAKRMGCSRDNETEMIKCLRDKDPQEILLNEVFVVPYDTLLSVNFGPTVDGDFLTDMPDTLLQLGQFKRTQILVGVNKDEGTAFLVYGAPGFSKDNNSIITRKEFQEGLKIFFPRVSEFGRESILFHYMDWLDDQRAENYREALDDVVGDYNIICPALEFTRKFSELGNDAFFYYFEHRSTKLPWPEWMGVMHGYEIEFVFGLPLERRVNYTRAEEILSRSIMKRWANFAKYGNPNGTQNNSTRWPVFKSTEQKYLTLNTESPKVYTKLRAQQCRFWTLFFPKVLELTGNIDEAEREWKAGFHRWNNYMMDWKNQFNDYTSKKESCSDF
Chain of Amyloid-beta precursor protein (Homo sapiens) (P05067 whole entry): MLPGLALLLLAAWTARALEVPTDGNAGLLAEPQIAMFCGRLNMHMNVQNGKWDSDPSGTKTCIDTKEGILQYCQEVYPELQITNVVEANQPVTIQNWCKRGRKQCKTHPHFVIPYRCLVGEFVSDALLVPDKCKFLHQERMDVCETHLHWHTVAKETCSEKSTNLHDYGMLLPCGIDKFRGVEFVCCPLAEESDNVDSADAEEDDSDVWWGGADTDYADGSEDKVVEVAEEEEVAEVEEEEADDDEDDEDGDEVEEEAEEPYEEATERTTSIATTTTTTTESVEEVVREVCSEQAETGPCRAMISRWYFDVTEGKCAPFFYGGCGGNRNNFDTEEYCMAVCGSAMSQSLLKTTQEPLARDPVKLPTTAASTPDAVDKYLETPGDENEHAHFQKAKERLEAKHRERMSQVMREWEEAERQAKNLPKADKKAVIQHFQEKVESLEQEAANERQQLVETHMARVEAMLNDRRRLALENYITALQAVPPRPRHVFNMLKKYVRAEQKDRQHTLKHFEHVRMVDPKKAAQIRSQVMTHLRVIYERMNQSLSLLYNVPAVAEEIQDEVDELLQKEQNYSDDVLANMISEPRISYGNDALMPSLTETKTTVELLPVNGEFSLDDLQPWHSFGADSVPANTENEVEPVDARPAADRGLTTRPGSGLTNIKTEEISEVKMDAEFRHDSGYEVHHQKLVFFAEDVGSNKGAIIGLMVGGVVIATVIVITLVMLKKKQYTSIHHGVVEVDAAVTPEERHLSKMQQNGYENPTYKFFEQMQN
Chain of Cholinesterase (Homo sapiens, UniProt P06276) (P06276 whole entry): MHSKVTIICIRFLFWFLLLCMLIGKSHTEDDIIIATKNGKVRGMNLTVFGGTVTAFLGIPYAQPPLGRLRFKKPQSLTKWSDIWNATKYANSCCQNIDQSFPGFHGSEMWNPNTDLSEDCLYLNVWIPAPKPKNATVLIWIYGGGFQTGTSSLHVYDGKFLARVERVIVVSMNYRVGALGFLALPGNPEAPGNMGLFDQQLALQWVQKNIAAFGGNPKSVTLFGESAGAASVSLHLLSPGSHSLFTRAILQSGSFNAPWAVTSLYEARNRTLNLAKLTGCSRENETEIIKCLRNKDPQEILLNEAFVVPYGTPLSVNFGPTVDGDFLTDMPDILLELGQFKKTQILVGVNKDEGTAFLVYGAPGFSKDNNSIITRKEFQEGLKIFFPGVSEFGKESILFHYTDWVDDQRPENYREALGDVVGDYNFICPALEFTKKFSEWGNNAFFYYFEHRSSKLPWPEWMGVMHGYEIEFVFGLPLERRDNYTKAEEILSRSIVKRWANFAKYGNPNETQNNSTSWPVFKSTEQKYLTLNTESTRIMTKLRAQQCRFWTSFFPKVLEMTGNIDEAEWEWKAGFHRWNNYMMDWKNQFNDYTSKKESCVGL

CCN(C)C(=O)Oc1ccc(/C=C/C(=O)N2CCc3ccccc3C2)cc1OC
Flu intensity [1]: 29.2
Flu intensity [2]: 32.6
Activity (HT-22 [3]): Non-Toxic
Activity (SH-SY5Y): Non-Toxic
Activity [4]: 43.3%
IC50 [5]: 5.3 µM
Activity (Cholinesterase [6]): 66.2%
IC50 (Cholinesterase [7]): 0.92 µM
Activity [8]: Non-Toxic
Activity [9]: Non-Toxic
Activity [10]: Non-Toxic
Activity (HT-22 [11]): Active
Activity (HT-22 [12]): Dose-dependent effect
Activity (L02): Non-Toxic
LC10 [13]: 6.25 µg/mL (≈ 15.8 µM)
MNTC ([13]; read-out: MNCC): 3.12 µg/mL
mortality at 25 ug/ml [14]: 100%
Activity [15]: 13.3%
Activity [16]: 100%
mortality at 1 ug/ml [17]: 0%
mortality at 10 ug/ml [18]: 0%
mortality at 200 ug/ml [19]: 100%
Activity (Danio rerio [20]): <=6418 mm
Activity (Danio rerio [21]): 6763 mm
Efficacy (Danio rerio [22]): 72.6%
Activity (Danio rerio [23]): 2.06 millimeter/sec
Efficacy (Danio rerio [24]): 57.3%
Activity (Danio rerio [25]): 80%
Efficacy (Danio rerio [26]): -9.1%
Activity [27]: Toxic
Activity [28]: Non-Toxic
Activity [29]: Non-Toxic
Activity (Mus musculus [30]): 61.6%
Activity (Mus musculus [31]): 54.1 U/g
Drug metabolism [32]: Metabolite_Detected
